Read-outs that look alike come from different tables or passages of the source.

The subject of one data set is tumor growth. Briefly: anti-tumor activity of GABA-linked conjugate compared to the unconjugated anticancer agent (model not given). Type of data set: in vivo. The following applies: model not specified. The text has this:
The anti-tumor activity of LOC-GABA-doxorubicin was studied in three tumor models.

Data set [1] deals with Madison 109 (M109) mouse lung carcinoma. As to the method: In all of the following in vivo experiments, the parent compound, doxorubicin, was injected intravenously (i.v.) in saline, while the fatty acid conjugates of doxorubicin were injected i.v. in 10% Cremophor® EL-P/10% ethanol/80% saline. The dosing schedule was Q3D×5.
T-C in this assay is defined as the time in days for the drug-treated tumors to double their mass three times subtracted […] to double their mass three times.

For data set [2] the following is noted: cited from earlier work.
The test system of the next data set is M109-Lung Tumor. The experiment in a line: M109-Lung Tumor Model (Table 5, second study with OOC-GABA-doxorubicin). In kind it is in vivo, mouse. The text has this: (§1) The dosing schedule was Q3D×5.
Data set [3] is described as follows: Toxicology: maximum tolerated dose, i.v. Q3D×5. The following applies: mouse, in vivo, iv, i.v. 5 times on a once every three day schedule.
Excerpt: as §1

The test system of another data set is HT-29 human colon tumor. Briefly: nude mouse xenograft model of the HT-29 human colon tumor. Type of data set: in vivo. The following applies: nude mouse. The method, then: as §1
In the nude mouse xenograft model of the HT-29 human colon tumor (Table 3), doxorubicin produced a T-C delay of 15.3 days at the MTD dose of 6 mg/kg, whereas P-367 (LOC-GABA-doxorubicin) produced a T-C delay of 32 days at 50 mg/kg and 22 at 25 mg/kg. Note that the activity of the lowest dose of LOC-GABA-doxorubicin is approximately equivalent to the highest, MTD of doxorubicin itself.
(In xenograft studies the graft and the host belong to different species.)

Data set [4] deals with MDA-MB-435 human breast tumor. Briefly: nude mouse xenograft model of the MDA-MB-435 human breast tumor. In kind it is in vivo. The following applies: nude mouse. As to the method: as §1
In the nude mouse xenograft model of the MDA-MB-435 human breast tumor (Table 4), doxorubicin produced a T-C delay of 14 days at the approximate MTD dose of 6 mg/kg (1/10 drug-related deaths). In the same model, LOC-GABA-doxorubicin produced a T-C delay of 13 days at 50 mg/kg (6/10 drug-related deaths) and 1.5 days at 25 mg/kg (0 drug-related deaths).

With `CCC=CCC=CCC=CCC=CCC=CCC=CCCC(=O)NCCCC(=O)OC(C(=O)OC1CC2(O)C(OC(=O)c3ccccc3)C3C4(OC(C)=O)COC4CC(O)C3(C)C(=O)C(OC(C)=O)C(=C1C)C2(C)C)C(NC(=O)c1ccccc1)c1ccccc1` (centres unmarked), in the data set with tumor growth, the “anti-tumor activity compared to the unconjugated drug” value was “superior activity in inhibiting tumor growth”.

Turning to `CC/C=C\C/C=C\C/C=C\C/C=C\C/C=C\C/C=C\CCC(=O)NCCCC(=O)O[C@H]1C[C@H]2OC[C@@]2(OC(C)=O)[C@H]2[C@H](OC(=O)c3ccccc3)[C@]3(O)C[C@H](OC(=O)[C@H](O)[C@@H](NC(=O)c4ccccc4)c4ccccc4)C(C)=C([C@@H](OC(C)=O)C(=O)[C@]12C)C3(C)C`, the “anti-tumor activity compared to the unconjugated drug” value with tumor growth is “did not show superior anti-tumor activity”.

As a reminder, the MTD is the largest dose that counted as tolerated. Low readings indicate poorer tolerability, high ones better tolerability. Regarding `COc1cccc2c1C(=O)c1c(O)c3c(c(O)c1C2=O)C[C@@](O)(C(=O)CO)C[C@@H]3O[C@H]1C[C@H](N)[C@H](O)[C@H](C)O1` [Doxorubicin, reference compound], the “Complete Regressions” value (in data set [1] (1 mg/kg i.v. Q3D×5); in data set [1] (2 mg/kg i.v. Q3D×5); in data set [1] (4 mg/kg i.v. Q3D×5); in data set [1] (6 mg/kg i.v. Q3D×5); in the data set with M109-Lung Tumor (2 mg/kg i.v. Q3D×5); in the data set on M109-Lung Tumor (4 mg/kg i.v. Q3D×5)) was 0 each time. In addition, the “Complete Regressions” value (in the data set on M109-Lung Tumor (6 mg/kg i.v. Q3D×5); with M109-Lung Tumor (8 mg/kg i.v. Q3D×5); with HT-29 human colon tumor (2 mg/kg i.v. Q3D×5); in the data set with HT-29 human colon tumor (4 mg/kg i.v. Q3D×5); in the data set with HT-29 human colon tumor (6 mg/kg i.v. Q3D×5); in data set [4] (2 mg/kg i.v. Q3D×5)) was 0 in each case. Besides, the “Complete Regressions” value in data set [4] (4 mg/kg i.v. Q3D×5) and in data set [4] (6 mg/kg i.v. Q3D×5) was 0 each time. Besides, the “Drug-related Deaths” value (in data set [1] (1 mg/kg i.v. Q3D×5); in data set [1] (2 mg/kg i.v. Q3D×5); in data set [1] (4 mg/kg i.v. Q3D×5); in the data set with M109-Lung Tumor (2 mg/kg i.v. Q3D×5); with M109-Lung Tumor (4 mg/kg i.v. Q3D×5); in the data set on M109-Lung Tumor (6 mg/kg i.v. Q3D×5)) was 0/5 throughout. Besides, the “Drug-related Deaths” value is on record as 0/5 with M109-Lung Tumor (8 mg/kg i.v. Q3D×5); 0/10 in the data set with HT-29 human colon tumor (2 mg/kg i.v. Q3D×5); 0/10 in the data set with HT-29 human colon tumor (4 mg/kg i.v. Q3D×5); 0/10 with HT-29 human colon tumor (6 mg/kg i.v. Q3D×5); 0/5 in data set [4] (2 mg/kg i.v. Q3D×5); 0/5 in data set [4] (4 mg/kg i.v. Q3D×5). In data set [4] (6 mg/kg i.v. Q3D×5), the “Drug-related Deaths” value is 1/10. In addition, the “Tumor Growth Delay T-C” value was 2.6 days in data set [1] (1 mg/kg i.v. Q3D×5); 2.2 days in data set [1] (2 mg/kg i.v. Q3D×5); 4.0 days in data set [1] (4 mg/kg i.v. Q3D×5); 5.7 days in data set [1] (6 mg/kg i.v. Q3D×5, time for tumors to double their mass three times, treated vs vehicle). Further, the complete responses result in data set [1] (at any dose) was “no complete responses”. In addition, the incidence of cardiomyopathy in data set [2] (cumulative dose 550 mg/m^2) was 7%; in data set [2] (cumulative dose 600 mg/m^2), 15%; in data set [2] (cumulative dose 700 mg/m^2), 30%. In addition, the “Days Delay T-C” value in the data set with M109-Lung Tumor (2 mg/kg i.v. Q3D×5) is 0.0 days; in the data set with M109-Lung Tumor (4 mg/kg i.v. Q3D×5) it was 1.4 days; in the data set with M109-Lung Tumor (6 mg/kg i.v. Q3D×5) it was 0.9 days; in the data set on M109-Lung Tumor (8 mg/kg i.v. Q3D×5) it was 4.6 days; in the data set with HT-29 human colon tumor (2 mg/kg i.v. Q3D×5), 2.2 days; in the data set on HT-29 human colon tumor (4 mg/kg i.v. Q3D×5) it was 4.0 days. Besides, the “Days Delay T-C” value is 5.7 days in the data set on HT-29 human colon tumor (6 mg/kg i.v. Q3D×5); 15.3 days with HT-29 human colon tumor (6 mg/kg i.v. Q3D×5, listed as doxorubicin); 0.0 days in data set [4] (2 mg/kg i.v. Q3D×5); 6.6 days in data set [4] (4 mg/kg i.v. Q3D×5); 14 days in data set [4] (6 mg/kg i.v. Q3D×5). Further, the MTD in data set [3] is 6 mg/kg; in data set [3] (nude) it was roughly 6 mg/kg.

On to `CCCCCCCC/C=C\CCCCCCCCOC(=O)NCCCC(=O)N[C@H]1C[C@H](O[C@H]2C[C@](O)(C(=O)CO)Cc3c(O)c4c(c(O)c32)C(=O)c2c(OC)cccc2C4=O)O[C@@H](C)[C@H]1O` [OOC-GABA-doxorubicin, oleyl alcohol-GABA-doxorubicin], for which the “Complete Regressions” value in the data set with M109-Lung Tumor (50 mg/kg i.v. Q3D×5), in the data set with M109-Lung Tumor (75 mg/kg i.v. Q3D×5), in the data set on M109-Lung Tumor (100 mg/kg i.v. Q3D×5) and in the data set with M109-Lung Tumor (125 mg/kg i.v. Q3D×5) was 0 in each case. Besides, the “Days Delay T-C” value with M109-Lung Tumor (50 mg/kg i.v. Q3D×5) is 10.0 days; in the data set with M109-Lung Tumor (75 mg/kg i.v. Q3D×5), 8.9 days; in the data set on M109-Lung Tumor (100 mg/kg i.v. Q3D×5), 10.3 days. In addition, the “Drug-related Deaths” value is 0/5 in the data set with M109-Lung Tumor (50 mg/kg i.v. Q3D×5), 0/5 with M109-Lung Tumor (75 mg/kg i.v. Q3D×5), 1/5 in the data set with M109-Lung Tumor (100 mg/kg i.v. Q3D×5) and 3/5 in the data set with M109-Lung Tumor (125 mg/kg i.v. Q3D×5). Moreover, the “anti-tumor activity compared to doxorubicin” value in the data set with M109-Lung Tumor (M109 mouse lung carcinoma model) was “superior anti-tumor activity”.

Values taken from patent publication US20120148595A1, “GABA-LINKED ANTHRACYCLINE-LIPID CONJUGATES” (Luitpold Pharmaceuticals, Inc., priority 2009, published 2012).
